Legend:
Assay type in all cases: cell-based
E. coli DH5α = assay: Antibacterial activity: MIC and growth curve against E. coli DH5α in 96-well plate; details: minimal inhibitory concentration against E. coli DH5α; 96-well plate, 5×10^5 CFU/mL, 37° C., judged after 8 h
In short: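 Log-phase bacteria (OD600 ~0.5) resuspended in LB at 5×10^5 CFU/mL, exposed to recombinant protein at 50, 25, 12.5 μg/mL final in triplicate, 37 °C shaking at 175 rpm. OD600 read every 30 min; MIC is lowest concentration showing no growth.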

Aeromonas hydrophila = assay: MIC against Gram-negative bacteria: Aeromonas hydrophila; details: for MIC A. hydrophila: two-fold serial dilution
In short: (§1)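 Two-fold serial dilutions of each purified human EGF domain protein, three replicate wells per level, were combined with bacteria at a final 5×10^5 CFU/mL in LB. Cultures were shaken at 175 rpm, 37° C. The MIC was taken as the minimum concentration preventing growth.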

Moraxella catarrhalis = assay: MIC against Gram-negative bacteria: Moraxella catarrhalis; details: for MIC M. catarrhalis: two-fold serial dilution
In short: as §1

Proteus vulgaris = assay: MIC against Gram-negative bacteria: Proteus vulgaris; details: for MIC P. vulgaris: two-fold serial dilution
In short: as §1

Pseudomonas aeruginosa = assay: MIC against Gram-negative bacteria: Pseudomonas aeruginosa; details: for MIC P. aeruginosa: two-fold serial dilution
In short: as §1

E. coli BL21 = assay: MIC against Gram-negative bacteria: E. coli BL21; details: for MIC E. coli BL21: two-fold serial dilution
In short: as §1

Klebsiella pneumonia = assay: MIC against Gram-negative bacteria: Klebsiella pneumonia; details: for MIC K. pneumonia: two-fold serial dilution
In short: as §1

Proteus mirabilis = assay: MIC against Gram-negative bacteria: Proteus mirabilis; details: for MIC P. mirabilis: two-fold serial dilution
In short: as §1

Serratia marcescens = assay: MIC against Gram-negative bacteria: Serratia marcescens; details: for MIC S. marcescens: two-fold serial dilution
In short: as §1

Citrobacter diversus = assay: MIC against Gram-negative bacteria: Citrobacter diversus; details: for MIC C. diversus: two-fold serial dilution
In short: as §1

Enterobacter cloacae = assay: MIC against Gram-negative bacteria: Enterobacter cloacae; details: for MIC E. cloacae: two-fold serial dilution
In short: as §1

[1] = A. hydrophila, 10 h cultivation at 37° C., 5×10^5 CFU/mL
[2] = M. catarrhalis, 10 h cultivation at 37° C., 5×10^5 CFU/mL
[3] = P. vulgaris, 10 h cultivation at 37° C., 5×10^5 CFU/mL
[4] = P. aeruginosa, 10 h cultivation at 37° C., 5×10^5 CFU/mL
[5] = E. coli BL21, 10 h cultivation at 37° C., 5×10^5 CFU/mL
[6] = K. pneumonia, 10 h cultivation at 37° C., 5×10^5 CFU/mL
[7] = P. mirabilis, 10 h cultivation at 37° C., 5×10^5 CFU/mL
[8] = S. marcescens, 10 h cultivation at 37° C., 5×10^5 CFU/mL
[9] = C. diversus, 10 h cultivation at 37° C., 5×10^5 CFU/mL
[10] = E. cloacae, 10 h cultivation at 37° C., 5×10^5 CFU/mL
[11] = 10 h cultivation at 37° C., 5×10^5 CFU/mL
[12] = Aeromonas hydrophila, 96-well plate, 5×10^5 CFU/mL, 37° C., 10 h
[13] = Moraxella catarrhalis, 96-well plate, 5×10^5 CFU/mL, 37° C., 10 h
[14] = Proteus vulgaris, 96-well plate, 5×10^5 CFU/mL, 37° C., 10 h
[15] = Pseudomonas aeruginosa, 96-well plate, 5×10^5 CFU/mL, 37° C., 10 h
[16] = E. coli BL21, 96-well plate, 5×10^5 CFU/mL, 37° C., 10 h
[17] = Klebsiella pneumonia, 96-well plate, 5×10^5 CFU/mL, 37° C., 10 h
[18] = Proteus mirabilis, 96-well plate, 5×10^5 CFU/mL, 37° C., 10 h
[19] = Serratia marcescens, 96-well plate, 5×10^5 CFU/mL, 37° C., 10 h
[20] = Citrobacter diversus, 96-well plate, 5×10^5 CFU/mL, 37° C., 10 h
[21] = Enterobacter cloacae, 96-well plate, 5×10^5 CFU/mL, 37° C., 10 h

PRT162 (LIDFCALSPCAHGTCRSVGTSYKCLCDPGYHGLYCE; listed as Homo sapiens)
MIC (E. coli DH5α): 12.5 mg/L
MIC (μg/mL) A. hydrophila (Aeromonas hydrophila; [1]): 25 µg/mL
MIC (μg/mL) M. catarrhalis (Moraxella catarrhalis; [2]): 12.5 µg/mL
MIC (μg/mL) P. vulgaris (Proteus vulgaris; [3]): 12.5 µg/mL
MIC (μg/mL) P. aeruginosa (Pseudomonas aeruginosa; [4]): 12.5 µg/mL
MIC (μg/mL) E. coli BL21 (E. coli BL21; [5]): 25 µg/mL
MIC (μg/mL) K. pneumonia (Klebsiella pneumonia; [6]): 25 µg/mL
MIC (μg/mL) P. mirabilis (Proteus mirabilis; [7]): 100 µg/mL
MIC (μg/mL) S. marcescens (Serratia marcescens; [8]): 25 µg/mL
MIC (μg/mL) C. diversus (Citrobacter diversus; [9]): 12.5 µg/mL
MIC (μg/mL) E. cloacae (Enterobacter cloacae; [10]): 12.5 µg/mL

PRT1112 (GAPVCAPSPCLHDGACRDLFDAFACACGPGWEGPRCE; listed as Homo sapiens)
MIC (E. coli DH5α): 50 mg/L
MIC A. hydrophila (Aeromonas hydrophila; [11]): 12.5 mg/L
MIC M. catarrhalis (Moraxella catarrhalis; [11]): 12.5 mg/L
MIC P. vulgaris (Proteus vulgaris; [11]): 12.5 mg/L
MIC P. aeruginosa (Pseudomonas aeruginosa; [11]): 12.5 mg/L
MIC E. coli BL21 (E. coli BL21; [11]): 25 mg/L
MIC K. pneumonia (Klebsiella pneumonia; [11]): 25 mg/L
MIC P. mirabilis (Proteus mirabilis; [11]): 25 mg/L
MIC S. marcescens (Serratia marcescens; [11]): 25 mg/L
MIC C. diversus (Citrobacter diversus; [11]): 25 mg/L
MIC E. cloacae (Enterobacter cloacae; [11]): 50 mg/L

PRT62 (ASGDCVPSPCHNGGTCLEEEEGVRCLCLPGYGGDLCD; listed as Homo sapiens)
MIC (E. coli DH5α): 12.5 mg/L
MIC (μg/mL) A. hydrophila (Aeromonas hydrophila; [12]): 25 µg/mL
MIC (μg/mL) M. catarrhalis (Moraxella catarrhalis; [13]): 25 µg/mL
MIC (μg/mL) P. vulgaris (Proteus vulgaris; [14]): 12.5 µg/mL
MIC (μg/mL) P. aeruginosa (Pseudomonas aeruginosa; [15]): 12.5 µg/mL
MIC (μg/mL) E. coli BL21 (E. coli BL21; [16]): 100 µg/mL
MIC (μg/mL) K. pneumonia (Klebsiella pneumonia; [17]): 12.5 µg/mL
MIC (μg/mL) P. mirabilis (Proteus mirabilis; [18]): 12.5 µg/mL
MIC (μg/mL) S. marcescens (Serratia marcescens; [19]): 25 µg/mL
MIC (μg/mL) C. diversus (Citrobacter diversus; [20]): 12.5 µg/mL
MIC (μg/mL) E. cloacae (Enterobacter cloacae; [21]): 12.5 µg/mL

PRT954 (NIDDCPNHRCQNGGVCVDGVNTYNCRCPPQWTGQFCT; listed as Homo sapiens)
MIC (E. coli DH5α): 50 mg/L
MIC (Aeromonas hydrophila; A. hydrophila, 10 h cultivation at 37° C.): 12.5 mg/L
MIC (Moraxella catarrhalis; M. catarrhalis, 10 h cultivation at 37° C.): 50 mg/L
MIC (Proteus vulgaris; P. vulgaris, 10 h cultivation at 37° C.): 12.5 mg/L
MIC (Pseudomonas aeruginosa; P. aeruginosa, 10 h cultivation at 37° C.): 12.5 mg/L
MIC (E. coli BL21; E. coli BL21, 10 h cultivation at 37° C.): 25 mg/L
MIC (Klebsiella pneumonia; K. pneumonia, 10 h cultivation at 37° C.): 25 mg/L
MIC (Proteus mirabilis; P. mirabilis, 10 h cultivation at 37° C.): 25 mg/L
MIC (Serratia marcescens; S. marcescens, 10 h cultivation at 37° C.): 25 mg/L
MIC (Citrobacter diversus; C. diversus, 10 h cultivation at 37° C.): 25 mg/L
MIC (Enterobacter cloacae; E. cloacae, 10 h cultivation at 37° C.): 50 mg/L

PRT1185 (REFQCDAYTCSNGGTCYDSGDTFRCACPPGWKGSTCA; listed as Homo sapiens)
MIC (E. coli DH5α): 50 mg/L
MIC A. hydrophila (Aeromonas hydrophila; [11]): 50 mg/L
MIC M. catarrhalis (Moraxella catarrhalis; [11]): 50 mg/L
MIC P. vulgaris (Proteus vulgaris; [11]): 50 mg/L
MIC P. aeruginosa (Pseudomonas aeruginosa; [11]): 25 mg/L
MIC E. coli BL21 (E. coli BL21; [11]): 12.5 mg/L
MIC K. pneumonia (Klebsiella pneumonia; [11]): 50 mg/L
MIC P. mirabilis (Proteus mirabilis; [11]): 12.5 mg/L
MIC S. marcescens (Serratia marcescens; [11]): 12.5 mg/L
MIC C. diversus (Citrobacter diversus; [11]): 12.5 mg/L
MIC E. cloacae (Enterobacter cloacae; [11]): 12.5 mg/L

PRT256 (CHLHARCVSQEGVARCRCLDGFEGDGFSC; listed as Homo sapiens)
MIC (E. coli DH5α): 25 mg/L
MIC (μg/mL) A. hydrophila (Aeromonas hydrophila; [1]): 12.5 µg/mL
MIC (μg/mL) M. catarrhalis (Moraxella catarrhalis; [2]): 12.5 µg/mL
MIC (μg/mL) P. vulgaris (Proteus vulgaris; [3]): 12.5 µg/mL
MIC (μg/mL) P. aeruginosa (Pseudomonas aeruginosa; [4]): 25 µg/mL
MIC (μg/mL) E. coli BL21 (E. coli BL21; [5]): 12.5 µg/mL
MIC (μg/mL) K. pneumonia (Klebsiella pneumonia; [6]): 12.5 µg/mL
MIC (μg/mL) P. mirabilis (Proteus mirabilis; [7]): 25 µg/mL
MIC (μg/mL) S. marcescens (Serratia marcescens; [8]): 25 µg/mL
MIC (μg/mL) C. diversus (Citrobacter diversus; [9]): 25 µg/mL
MIC (μg/mL) E. cloacae (Enterobacter cloacae; [10]): 25 µg/mL

PRT1262 (DVDECSMSNGSCDQGCVNTKGSYECVCPPGRRLHWNGKDCV; listed as Homo sapiens)
MIC (E. coli DH5α): 12.5 mg/L
MIC against A. hydrophila (Aeromonas hydrophila; [12]): 50 mg/L
MIC against M. catarrhalis (Moraxella catarrhalis; [13]): 50 mg/L
MIC against P. vulgaris (Proteus vulgaris; [14]): 50 mg/L
MIC against P. aeruginosa (Pseudomonas aeruginosa; [15]): 12.5 mg/L
MIC against E. coli BL21 (E. coli BL21; [16]): 25 mg/L
MIC against K. pneumonia (Klebsiella pneumonia; [17]): 25 mg/L
MIC against P. mirabilis (Proteus mirabilis; [18]): 12.5 mg/L
MIC against S. marcescens (Serratia marcescens; [19]): 25 mg/L
MIC against C. diversus (Citrobacter diversus; [20]): 12.5 mg/L
MIC against E. cloacae (Enterobacter cloacae; [21]): 12.5 mg/L

Source: US9833497B2, “Human originated EGF domain proteins and use of the same” (CHENGDU SOURCEBIO LIMITED-LIABILITY COMPANY, priority 2013, dated 2017)
